Assays:
[1] = Polymerization of acrylonitrile at 70° C. with benzoyl peroxide in the presence of nitroxide inhibitors; settings: acrylonitrile 10 ml, benzoyl peroxide 0.35 g, inhibitor 0.1 g (0.1 ml for 6), water bath 70° C.
Description: (§1) Testing was done to determine the effectiveness of various nitroxides in inhibiting the polymerization of various vinyl monomers.
(§2) A sample of vinyl monomer (10 ml) was placed in an open 25 ml test tube. To each tube benzoyl peroxide (0.35 g) and 0.1 g of nitroxide inhibitor was added, then the tubes were placed in a water bath maintained by a thermostat at 70° C. The selected vinyl monomers polymerize under these conditions without nitroxide inhibitors within a few minutes.
(§3) Vinyl monomers: acrylonitrile, vinyl acetate and methyl acrylate.
Polymerization of Acrylonitrile at 70° C. in the presence of Nitroxide Inhibitors.

[2] = Polymerization of vinyl acetate at 70° C. with benzoyl peroxide in the presence of nitroxide inhibitors; settings: vinyl acetate 10 ml, benzoyl peroxide 0.35 g, inhibitor 0.1 g (0.1 ml for 6), water bath 70° C.
Description: as §1, §2, §3
Polymerization of Vinyl Acetate at 70° C. in the presence of Nitroxide Inhibitors.

[3] = Polymerization of methyl acrylate at 70° C. with benzoyl peroxide in the presence of nitroxide inhibitors; settings: methyl acrylate 10 ml, benzoyl peroxide 0.35 g, inhibitor 0.1 g (0.1 ml for 6), water bath 70° C.
Description: as §1, §2, §3
Polymerization of Methyl Acrylate at 70° C. in the presence of Nitroxide Inhibitors.

| Structure (SMILES) | Inhibition Time [1] | Inhibition Time [2] | Inhibition Time [3] |
| --- | --- | --- | --- |
| CC1(C)CC2(CC(C)(C)N1[O])OCCCO2 [Example 1, 1,5-dioxa-9-aza-8,8,10,10-tetramethylspiro[5,5]undec-9-yloxy] | 40 min | 205 min | 165 min |
| CC1(C)CC2(CC(C)(C)N1[O])OCCCO2 [Example 2, 1,5-dioxa-9-aza-8,8,10,10 tetramethylspiro[5,5]undec-9-yloxy] | 60 min | 145 min | 166 min |
| COC1CC(C)(C)N(O)C(C)(C)C1 [Inhibitor 3] | 305 min | >300 min | >300 min |
| CC1(C)CCCC(C)(C)N1O [Inhibitor 5] | 60 min | 385 min | 180 min |

Source: US7132540B1, “Hindered spiro-ketal nitroxides” (Nova Molecular Technologies Inc., priority 2001, dated 2006)
